14 molecules from EP4678638A1, “NEW E3 UBIQUITIN LIGASE LIGAND, PROTEIN DEGRADATION AGENT AND USE THEREOF” (priority 2023, dated 2024) can be followed below.

Where two headings read alike, the source gives them in different places.

The subject of one assay is MV-4-11. As to the kind of experiment: CCK-8 proliferation, MV-4-11. The assay is classed as cell-based, Human. Particulars: CCK-8, 72 or 96 hours, read-out: Inhibitory activity (IC50) on tumor cell proliferation, MV-4-11. The gist of the method:
(§1)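 CCK-8 viability readout; IC50 from growth-inhibition curve fitting. Cells plated, dosed 24h later with a 10-point series, top 10µM, 5-fold steps. Culture at 37°C, 5% CO2.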

In the next assay the test system is CCRF-CEM. Put plainly: CCK-8 proliferation, CCRF-CEM. The assay is classed as cell-based, Human. Particulars: CCK-8, 96 hours, read-out: Inhibitory activity (IC50) on tumor cell proliferation, CCRF-CEM. The gist of the method: as §1
A further assay has as its system Kasumi-1. Put plainly: CCK-8 proliferation, Kasumi-1. Particulars: read-out: Inhibitory activity (IC50) on tumor cell proliferation, Kasumi-1. The assay is classed as cell-based, Human. Here is the method: (§2) The tumor cells used herein were cultured in a cell culture medium listed in table A1 at 37°C in an incubator with 5% CO2. Prior to experimentation, all cell lines used were correctly identified by STR profiling, and tested negative for mycoplasma contamination using a mycoplasma detection kit through routine screenings. Table A1. Tumor cells and cell culture medium used in the present disclosure
(§3) IC50 values of the compounds of the present disclosure (including the compounds in Table 1, and compounds of examples) were measured using the Meilun Cell Counting Kit-8 kit from Dalian Meilun Biotech Co., Ltd. Assay details are as follows: tumor cells were seeded in a 96-well plate at a density listed in Table A2. After 24h, 100 µL of the inoculated cells were treated with 0.5µL of the compounds of the present disclosure (including the compounds in Tables 1 and 2, and compounds of examples) at 10 different successively decreasing concentrations (starting at the highest concentration of 10µM; 5-fold serial dilutions). After the cells were treated with the compounds of the present disclosure for a period of time, the cell viability detection reagent was added to the culture medium for cell viability assessment according to the instructions provided with the CCK-8 kit. […] The growth inhibition of the compounds of the present disclosure on cells was plotted by Prism Graphpad software, and the IC50 values of the compounds of the present disclosure were calculated therefrom. […] Seeding protocol and treatment time for tumor cells

The subject of the next assay is PC-9. As to the kind of experiment: CCK-8 proliferation, PC-9. The assay is classed as cell-based, Human. Particulars: Homo sapiens, PC-9; CCK-8; 96 hours; read-out: Inhibitory activity (IC50) on tumor cell proliferation, PC-9. Here is the method: as §2, §3
A further assay has as its system HCC827. Put plainly: CCK-8 proliferation, HCC827. It counts as cell-based, Human. Particulars: Homo sapiens, HCC827; CCK-8; 96 hours; read-out: Inhibitory activity (IC50) on tumor cell proliferation, HCC827. Here is the method:
as §2, §3

The subject of a further assay is EGFR. Put plainly: Western blot degradation of EGFR (H1975 Cell). The following applies: Table D2. The assay is classed as cell-based, Human. An outline of the steps:
(§4)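 Degradation is assessed by immunoblotting lysates of treated cells. Target bands are quantified by grayscale and normalised to an internal control, so degradation rate equals 100% minus % remaining.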

In another assay the test system is H1975. Put plainly: CCK-8 proliferation, NCI-H1975 (H1975). It counts as cell-based, Human. The following applies: Homo sapiens, NCI-H1975; CCK-8; 96 hours; read-out: Inhibitory activity (IC50) on tumor cell proliferation, H1975. The gist of the method: as §1
The next assay deals with MCF7. As to the kind of experiment: CCK-8 proliferation, MCF7 (MCF-7). The assay is classed as cell-based. Particulars: Homo sapiens, MCF7; CCK-8; read-out: Inhibitory activity (IC50) on tumor cell proliferation, MCF7. The gist of the method:
as §1

A further assay concerns the target T1, CDK4 (Homo sapiens, UniProt P11802).
T1 construct: evaluate the effects of the compounds of the present disclosure on the expression of target proteins in cells; endogenous in cells; host or cells: MDA-MB-231
As to the kind of experiment: Western blot degradation of CDK4 (MDA-MB-231 Cell). The assay is classed as cell-based. The following applies: Table D3. An outline of the steps: as §4

The target of the next assay is T2, CDK6 (Homo sapiens, UniProt Q00534).
T2 construct: evaluate the effects of the compounds of the present disclosure on the expression of target proteins in cells; endogenous in cells; host or cells: MDA-MB-231
T2 sequence (Q00534 whole entry): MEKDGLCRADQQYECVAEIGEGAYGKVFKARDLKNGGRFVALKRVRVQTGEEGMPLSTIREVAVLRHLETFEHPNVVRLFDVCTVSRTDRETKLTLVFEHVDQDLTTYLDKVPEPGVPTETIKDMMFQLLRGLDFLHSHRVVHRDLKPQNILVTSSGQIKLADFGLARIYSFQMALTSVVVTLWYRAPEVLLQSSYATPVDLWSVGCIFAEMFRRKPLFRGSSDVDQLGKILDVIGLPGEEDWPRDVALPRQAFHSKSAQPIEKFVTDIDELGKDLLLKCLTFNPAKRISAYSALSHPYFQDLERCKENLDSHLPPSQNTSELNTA
As to the kind of experiment: Western blot degradation of CDK6 (MDA-MB-231 Cell). It counts as cell-based. Particulars: Table D3. An outline of the steps:
as §4

The mark [1] stands for this setting: Homo sapiens, Kasumi 1, 72 hours.

T1 sequence (P11802 whole entry): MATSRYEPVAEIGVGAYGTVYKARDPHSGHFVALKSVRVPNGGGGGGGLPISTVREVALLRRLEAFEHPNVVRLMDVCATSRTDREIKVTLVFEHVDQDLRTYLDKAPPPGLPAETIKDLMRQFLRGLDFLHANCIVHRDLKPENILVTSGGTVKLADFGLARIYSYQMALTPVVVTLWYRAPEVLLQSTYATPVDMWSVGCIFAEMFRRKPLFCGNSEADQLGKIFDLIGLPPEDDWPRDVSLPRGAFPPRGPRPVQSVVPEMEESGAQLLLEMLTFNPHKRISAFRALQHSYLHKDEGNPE

On to `CN1CCN(Cc2ccc(NC(=O)c3[nH]ncc3Nc3ncnc4[nH]ccc34)cc2)CC1` [FN-1501, reference compound], for which the IC50 in the assay with MV-4-11 lay within 0.001 to 0.01 µM; in the assay with CCRF-CEM it was 0.1 to 0.5 µM; in the assay on Kasumi-1 (72 hours), 0.1 to 0.5 µM.

Take `O=C1CCC(c2ccc(CN3CCN(c4ccc(Nc5ncc6nc(Nc7ccccc7)n(C7CCCC7)c6n5)cc4)CC3)cc2)C(=O)N1` (stereo not shown) [GT-03740, 3-(4-((4-(4-((9-cyclopentyl-8-(phenylamino)-9H-purin-2-yl)amino)phenyl)piperazin-1-yl)methyl)phenyl)piperidine-2,6-dione]: the IC50 in the assay on PC-9 and in the assay with HCC827 was 0.01 to 0.05 µM in each case. Also, the “Degradation of substrate protein EGFR (substrate protein remaining %)” value in the assay on EGFR is on record as “A (A is defined as 0% ≤ substrate protein remaining % ≤ 80%)”.

`O=C1CCC(c2ccc(CN3CCN(c4ccc(Nc5ncc6nc(Nc7ccccc7)n(C7CCCC7)c6n5)cc4)CC3)cc2F)C(=O)N1` (stereo not shown) [GT-03741, 3-(4-((4-(4-((9-cyclopentyl-8-(phenylamino)-9H-purin-2-yl)amino)phenyl)piperazin-1-yl)methyl)-2-fluorophenyl)piperidine-2,6-dione]: the IC50 in the assay with PC-9 and with HCC827 was 0.01 to 0.05 µM in each case.

In the case of `CN(Cc1ccc(C2CCC(=O)NC2=O)cc1)C1CCN(c2ccc(Nc3ncc4nc(Nc5ccccc5)n(C5CCCC5)c4n3)cc2)CC1` (stereo not shown) [GT-03863, 3-(4-(((1-(4-((9-cyclopentyl-8-(phenylamino)-9H-purin-2-yl)amino)phenyl)piperidin-4-yl)(methyl)amino)methyl)phenyl)piperidine-2,6-dione], the IC50 in the assay on PC-9 lay within 0.001 to 0.01 µM; in the assay with H1975, 0.1 to 0.5 µM; in the assay with HCC827 it was 0.001 to 0.01 µM. Also, the “Degradation of substrate protein EGFR (substrate protein remaining %)” value in the assay on EGFR is “A (A is defined as 0% ≤ substrate protein remaining % ≤ 80%)”.

Consider `CN(Cc1ccc(C2CCC(=O)NC2=O)c(F)c1)C1CCN(c2ccc(Nc3ncc4nc(Nc5ccccc5)n(C5CCCC5)c4n3)cc2)CC1` (stereo not shown) [GT-03864, 3-(4-(((1-(4-((9-cyclopentyl-8-(phenylamino)-9H-purin-2-yl)amino)phenyl)piperidin-4-yl)(methyl)amino)methyl)-2-fluorophenyl)piperidine-2,6-dione], for which the IC50 lay in the range of 0.001 to 0.01 µM in the assay with PC-9, 0.1 to 0.5 µM with H1975 and 0.001 to 0.01 µM in the assay with HCC827. In addition, in the assay with EGFR, the “Degradation of substrate protein EGFR (substrate protein remaining %)” value was “A (A is defined as 0% ≤ substrate protein remaining % ≤ 80%)”.

Regarding `O=C1CCN(c2ccc(CN3CCN(c4ccc(Nc5ncc6nc(Nc7ccccc7)n(C7CCCC7)c6n5)cc4)CC3)cc2)C(=O)N1` [GT-05837, 1-(4-((4-(4-((9-cyclopentyl-8-(phenylamino)-9H-purin-2-yl)amino)phenyl)piperazin-1-yl)methyl)phenyl)dihydropyrimidine-2,4(1H,3H)-dione], the IC50 in the assay on PC-9 lay within 0.001 to 0.01 µM; in the assay with H1975, 0.1 to 0.5 µM; in the assay with HCC827, 0.001 to 0.01 µM.

Turning to `O=C1CCN(c2cccc(CN3CCN(c4ccc(Nc5ncc6nc(Nc7ccccc7)n(C7CCCC7)c6n5)cc4)CC3)c2)C(=O)N1` [GT-05838, 1-(3-((4-(4-((9-cyclopentyl-8-(phenylamino)-9H-purin-2-yl)amino)phenyl)piperazin-1-yl)methyl)phenyl)dihydropyrimidine-2,4(1H,3H)-dione], the values for the IC50 with PC-9, with H1975 and in the assay on HCC827 were 0.001 to 0.01 µM, 0.1 to 0.5 µM and 0.001 to 0.01 µM, respectively. In addition, in the assay with EGFR, the “Degradation of substrate protein EGFR (substrate protein remaining %)” value is recorded as “A (A is defined as 0% ≤ substrate protein remaining % ≤ 80%)”.

For the molecule `O=C1CCC(Nc2cccc(CN3CCN(c4ccc(Nc5ncc6nc(Nc7ccccc7)n(C7CCCC7)c6n5)cc4)CC3)c2)C(=O)N1` (stereo not shown) [GT-05841, 3-((3-((4-(4-((9-cyclopentyl-8-(phenylamino)-9H-purin-2-yl)amino)phenyl)piperazin-1-yl)methyl)phenyl)amino)piperidine-2,6-dione], the IC50 with PC-9 and in the assay on HCC827 was 0.01 to 0.05 µM throughout. Besides, the “Degradation of substrate protein EGFR (substrate protein remaining %)” value in the assay with EGFR is “A (A is defined as 0% ≤ substrate protein remaining % ≤ 80%)”.

For the molecule `CN(Cc1ccc(N2CCC(=O)NC2=O)nc1)C1CCN(c2ccc(Nc3ncc4nc(Nc5ccccc5)n(C5CCCC5)c4n3)cc2)CC1` [GT-05871, 1-(5-(((1-(4-((9-cyclopentyl-8-(phenylamino)-9H-purin-2-yl)amino)phenyl)piperidin-4-yl)(methyl)amino)methyl)pyridin-2-yl)dihydropyrimidine-2,4(1H,3H)-dione], the IC50 in the assay with PC-9 lay within 0.001 to 0.01 µM; in the assay with H1975, 0.1 to 0.5 µM; in the assay with HCC827, 0.01 to 0.05 µM.

As for `O=C1CCC(Nc2cccc(CN3CCN(C4CCN(c5ccc(Nc6ncc7nc(Nc8ccccc8)n(C8CCCC8)c7n6)cc5)CC4)CC3)c2)C(=O)N1` (stereo not shown) [GT-05943, 3-((3-((4-(1-(4-((9-cyclopentyl-8-(phenylamino)-9H-purin-2-yl)amino)phenyl)piperidin-4-yl)piperazin-1-yl)methyl)phenyl)amino)piperidine-2,6-dione], the IC50 with PC-9 and in the assay with HCC827 was 0.01 to 0.05 µM each time. In addition, the “Degradation of substrate protein EGFR (substrate protein remaining %)” value in the assay on EGFR is listed as “A (A is defined as 0% ≤ substrate protein remaining % ≤ 80%)”.

On to `Cc1nc2c(F)cc(-c3nc(Nc4ccc(CN5CCN(Cc6ccc(N7CCC(=O)NC7=O)nc6)CC5)cn4)ncc3F)cc2n1C(C)C` [GT-06668, 1-(5-((4-((6-((5-fluoro-4-(4-fluoro-1-isopropyl-2-methyl-1H-benzo[d]imidazol-6-yl)pyrimidin-2-yl)amino)pyridin-3-yl)methyl)piperazin-1-yl)methyl)pyridin-2-yl)dihydropyrimidine-2,4(1H,3H)-dione], for which the IC50 was in the range of 0.05 to 0.1 µM in the assay with MCF7; 0.05 to 0.1 µM with MV-4-11 (Homo sapiens, MV4-11); 0.1 to 0.5 µM in the assay with Kasumi-1 (setting [1]). The “Degradation of substrate protein CDK4 (substrate protein remaining %)” value on CDK4 was “A (A is defined as 0% ≤ substrate protein remaining % ≤ 80%)”. Also, the “Degradation of substrate protein CDK6 (substrate protein remaining %)” value at CDK6 is given as “A (A is defined as 0% ≤ substrate protein remaining % ≤ 80%)”.

In the case of `Cc1cc(S(=O)(=O)N2CCN(Cc3ccc(N4CCC(=O)NC4=O)nc3)CC2)ccc1Nc1ncc(Br)c(Nc2cccc(F)c2C(N)=O)n1` [GT-06834, 2-((5-bromo-2-((4-((4-((6-(2,4-dioxotetrahydropyrimidin-1(2H)-yl)pyridin-3-yl)methyl)piperazin-1-yl)sulfonyl)-2-methylphenyl)amino)pyrimidin-4-yl)amino)-6-fluorobenzamide], the IC50 in the assay on MV-4-11 (Homo sapiens, MV4-11) was in the range of 0.1 to 0.5 µM; in the assay on CCRF-CEM (Homo sapiens, CCRF-CEM), 0.5 to 1 µM; in the assay on Kasumi-1 (setting [1]), 0.5 to 1 µM.

On to `Cc1ccsc1C(=O)n1nc(Nc2ccc(S(=O)(=O)N3CCN(Cc4ccc(N5CCC(=O)NC5=O)cc4)CC3)cc2)nc1N` [GT-06856, 1-(4-((4-((4-((5-amino-1-(3-methylthiophene-2-carbonyl)-1H-1,2,4-triazol-3-yl)amino)phenyl)sulfonyl)piperazin-1-yl)methyl)phenyl)dihydropyrimidine-2,4(1H,3H)-dione], for which the IC50 in the assay with MV-4-11 (Homo sapiens, MV4-11) lay within 0.1 to 0.5 µM; in the assay with CCRF-CEM (Homo sapiens, CCRF-CEM), 0.5 to 1 µM; with Kasumi-1 (setting [1]), 0.5 to 1 µM.

For `Cc1ccsc1C(=O)n1nc(Nc2ccc(S(=O)(=O)N3CCN(Cc4ccc(N5CCC(=O)NC5=O)nc4)CC3)cc2)nc1N` [GT-06861, 1-(5-((4-((4-((5-amino-1-(3-methylthiophene-2-carbonyl)-1H-1,2,4-triazol-3-yl)amino)phenyl)sulfonyl)piperazin-1-yl)methyl)pyridin-2-yl)dihydropyrimidine-2,4(1H,3H)-dione], the IC50 with MV-4-11 (Homo sapiens, MV4-11) was in the range of 0.1 to 0.5 µM; with CCRF-CEM (Homo sapiens, CCRF-CEM), 0.5 to 1 µM; in the assay with Kasumi-1 (setting [1]), 0.5 to 1 µM.
